The source of these data is patent US20080014149A1, “Methods and Compositions for Imaging and Biomedical Applications” (priority 2004, published 2008).

Data set [1] concerns T1, PEG-Peptide-DTPA-Dy containing MMP-7 substrate peptide-DTPA.
T1 sequence: RPLALWRSGCG

The nature of data set [2]: Imaging DTT with 19b and 25 in agarose gels (MRI). The conditions noted are these: 0.5 mM in 2% agarose hydrogels, 50 mM DTT, vials filled with PBS. As for the experimental part: The T2/T1 quenching detectable constructs 19b and 25 are loaded into 2% agarose hydrogels at a concentration of 0.5 mM. The hydrogels have a volume of 0.5 ml and are made in 10 ml scintillation vials. After the hydrogels form, the vials are filled with PBS buffer, pH 7.4, and then imaged in either a 9.4 Tesla MRI machine or a 17.8 Tesla MRI machine (University of Florida). The best TR/TE parameters are selected from calculations using the spin-echo signal equation with respect to the relaxation times and the TR/TE. The TE and TR are chosen such that the signal intensity of the hydrogels loaded with 19b and 25 is lower than or equal to pure agarose hydrogels. These calculations are based on the R1 and R2 of 19b and 25. DTT is added to the scintillation vials to generate a 50 mM concentration of DTT in the vials. The control hydrogels for this experiment consist of hydrogels that contain 50 mM DTT, without 19b or 25. The signal intensity of the gels is measured every hour for 48 hours. The T1 and the T2 of the gels is measured every hour, the T1 is measured using an inversion recovery sequence, for which the sequence parameters will be selected based on the values of R1 and R2 of 19b and 25. The T2 will be measured using a Carr-Purcell-Meiboom-Gill (CPMG) sequence with TEs chosen from the values of R2 for 19b and 25 (Haacke 1999).

Data set [3] can be described thus: Water exchange rate of dysprosium chelate. Format: physicochemical. An excerpt:
This is a derivative form of DTPA. The chelator molecule of this example is considered a modification of the detectable detectable agent, wherein the chelator molecule has substitutions. The R2 of dysprosium chelates is inversely proportional to the water exchange rate, particularly for macromolecular dysprosium chelates at high field strengths (Vander 2002 and Caravan 2001) The dysprosium chelate detectable construct remainder in 25 has a greater R2 than the dysprosium chelate detectable construct remainder in 19b and also generates a larger change in tissue T2 after cleavage and diffusion away from the polymeric gadolinium detectable construct remainder. The R1 and R2 of 25 is determined using a 600 MHz NMR machine as described in Example 2.

Data set [4] can be described thus: R1 and R2 relaxivity from water T1/T2 measurements by NMR. Format: physicochemical. The conditions noted are these: for R1: deuterium oxide, Unity-600 MHz, 25±0.1° C. The procedure:
The R2 and R1 of 19a and 18a were calculated to show cleavage of the T2/T1 quenching detectable construct 19a generated a large enough change in R2 to allow for enzyme detection. The compound 19a represents an intact T2/T1 quenching detectable construct and the compound 18a represents a polymeric gadolinium detectable construct remainder resulting from cleavage of the reaction region. The R1 and R2 of 19a and 18a were measured in deuterium oxide in a Unity-600 MHz (Varian, Inc.) at 25±0.1° C. T1 and T2 measurements of water relaxation times were measured at various concentrations of 19a and 18a, and a plot of 1/T1 and 1/T2 was made against the concentration; the relaxivities R1 and R2 were determined by the slope of this graph using equation 1 (Caravan 1991), [formula] where 1/T1 is the relaxation rate of the water proton induced by the paramagnetic and diamagnetic species present in solution, and 1/T1 (diamagnetic) is the relaxation rate in the absence of the paramagnetic species. R1 and R2 of 18a were calculated to be 3.34 mM^−1s^− and 6.8 mM^−1s^−1 and the R1 and R2 of 19a were 4.0 mM^−1s^−1 and 21.77 mM^−1s^−1 (see FIG. 19).

In another data set the target is MMP-9 (Homo sapiens, UniProt P14780). In words: Imaging MMP-9 with 40 and 42 in agarose gels (MRI). Format: biochemical. The conditions noted are these: agarose hydrogels.
Data set [5] can be described thus: Imaging DTT with 33 in agarose hydrogels (MRI). The conditions noted are these: vials not filled with buffer. The procedure:
An experimental procedure similar to that outlined in Example 4 is used to image DTT, except that the hydrogels are loaded with compound 33. The scintillation vials which contain the gels are not filled with buffer. This ensured that the cleaved dysprosium remains in the gel and that changes in T2 and signal intensity are due to changes in the rotational correlation time of dysprosium. The DTT is directly added to hydrogels as a concentrated solution. The gels are analyzed in a manner similar to Example 4. The control for this experiment is agarose hydrogels that just contain DTT. […] Problems with synthesis of 33 due to its high polydispersity may result from the free radical polymerization used to generate 28. This problem can be solved by using atom transfer radical polymerization (ATRP) to synthesize 28, using a protected methacrylic acid monomer and an (ATRP) initiator with a functional handle.

Data set [6] has as its system trypsin Dy only detectable construct (cleavable PEG-peptide-dysprosium, FIG. 24).
Data set [7] can be described thus: Diffusion coefficient in water (literature). Format: physicochemical. An excerpt: Another example of a detectable construct of the present invention is shown in FIG. 15, wherein the detectable construct comprises a first detectable agent, comprising a metal ion and a chelator, covalently bonded to a linking region comprising PEG(polyethylene glycol) MW 80 kD, which is covalently bonded to a reaction region that is a substrate that can be cleaved by an enzyme or chemical process, which is covalently bonded to a second detectable agent comprising a chelator and a metal ion. In this particular example, the first detectable agent is Gadolinium associated with the chelator DTPA, and the second detectable agent is Dysprosium associated with the chelator DTPA. This detectable construct can be used in a method based upon the counteracting effects of T1 and T2 contrast agents on MRI signal intensity. Gadolinium is the T1 contrast agent and dysprosium is the T2 contrast agent. The dysprosium detectable agent is connected to the PEG chain through a cleavable linkage, such as a disulfide bond or an enzyme cleavable peptide linkage. Cleavage of 3a generates a low molecular weight dysprosium detectable construct remainder (4) and a high molecular weight PEG gadolinium detectable construct remainder. […]
At present, tumors can only be detected after they reach mm-cm dimensions. […]

The conditions of data set [8]: in water, cited from earlier work.
Data set [9] relates to MMP-7 expressing SW480mat xenograft tumors. As to the kind of experiment: In vivo imaging of MMP-7 activity in mouse xenograft tumors (MRI). The arrangement: species or system athymic nude mice. The conditions noted are these: expectation; mice with MMP-7 expressing tumors, 9.4 Tesla. An excerpt: MMP-7 activity is imaged in athymic nude mice which have been given MMP-7 expressing xenograft tumors, using the T2/T1 quenching detectable construct, gadolinium-PEG-RPLALWRSC-dysprosium (46, FIG. 26). This compound contains a reaction region that is the MMP-7 cleavage site, RPLALWRSC, (SEQ ID NO: 2). […] See FIG. 26 for the synthesis of 46.
The resulting tumors are allowed to grow up to a size of 1-2 cm (4-6 weeks). During this period, the mice are imaged at various times points ranging from 3 days to 6 weeks after the injection of the tumor cells, according to the following procedure: after proper anesthetization, a catheter is inserted into the tail vein of the mice, a composition comprising the detectable construct 46 is injected through the catheter and the mice are imaged every hour for 24 hours in a 9.4 Tesla MRI machine (Emory University), measuring the MRI signal intensity, tissue T1 and tissue T2.
The signal intensity and T2 of the MMP-7 expressing tumors is compared against the control tumors. If the signal intensity of the MMP-7 expressing tumors is greater than the controls, then MMP-7 successfully cleaved 46, resulting in an increase in MRJ signal intensity and the imaging of MMP-7. Furthermore, data is obtained relating to the sensitivity of the method to image early tumor activity, as well as ratiometric information relating to tumor growth.

[10] abbreviates: listed as DTPA-Dy detectable construct remainder.

Like-named read-outs stand apart in the source and are kept apart here.

Sequence of MMP-9 (P14780 94-707, species assumed): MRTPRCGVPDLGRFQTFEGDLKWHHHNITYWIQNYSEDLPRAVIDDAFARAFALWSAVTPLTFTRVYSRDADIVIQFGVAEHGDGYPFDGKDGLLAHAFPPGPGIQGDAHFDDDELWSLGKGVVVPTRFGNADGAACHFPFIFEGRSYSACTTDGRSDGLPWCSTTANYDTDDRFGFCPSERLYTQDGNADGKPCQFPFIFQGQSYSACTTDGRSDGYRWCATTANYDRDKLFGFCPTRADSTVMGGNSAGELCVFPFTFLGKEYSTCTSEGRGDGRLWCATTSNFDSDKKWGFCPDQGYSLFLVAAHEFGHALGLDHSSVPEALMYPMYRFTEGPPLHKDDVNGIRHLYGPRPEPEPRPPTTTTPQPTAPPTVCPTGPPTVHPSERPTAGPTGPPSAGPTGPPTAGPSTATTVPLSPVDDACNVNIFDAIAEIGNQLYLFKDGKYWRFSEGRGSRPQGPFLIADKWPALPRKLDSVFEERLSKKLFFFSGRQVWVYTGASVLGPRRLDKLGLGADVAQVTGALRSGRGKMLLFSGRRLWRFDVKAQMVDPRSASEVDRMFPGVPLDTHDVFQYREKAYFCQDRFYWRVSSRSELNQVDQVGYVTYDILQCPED

For MMP-7, the “T2 signal (NMR in D2O buffer, 37 C, 4.5 hours)” value in data set [1] is reported as “upon treatment of micelles with MMP-7 that the T2 signal increase by over two-fold”.

For “Gadolinium-PEG-S—S-Dysprosium [Compound 19b]”, in [2], the “MRI signal intensity of agarose gels after addition of DTT” value (“MRI signal intensity of agarose gels” below) is recorded as “increases the signal intensity”.

On to “Gadolinium-PEG-S—S-Dysprosium-Diamide [Compound 25]”, for which, in data set [3], the “water exchange rate τm, times lower than the dysprosium chelate in 19b” value came out at 34 times. The “MRI signal intensity of agarose gels” value in data set [2] is listed as “increases the signal intensity”.

Substance Thiol-PEG-DTPA-Gd [Compound 18a] displayed an R1 in [4] of 3.34 mM⁻¹ s⁻¹.

Take “gadolinium-PEG-Pro-Val-Gly-Leu-Ile-Gly-dysprosium [Compound 40]”: the “MRI signal intensity on cleavage by MMP-9” value at MMP-9 was “increase in signal intensity”.

For the substance “gadolinium-poly(methacrylic acid)-Pro-Val-Gly-Leu-Ile-Gly-dysprosium [Compound 42]”, on MMP-9, the “MRI signal intensity on cleavage by MMP-9” value is “increased signal intensity”.

“Gadolinium-Poly(Methacrylic Acid)-PEG-S—S-Dysprosium [Compound 33]”: the “MRI signal intensity of agarose gels” value in [5] is on record as “increases the signal intensity”.

As to “Gadolinium-PEG-S—S-Dysprosium [Compound 19a]”, the “decrease in R1 between 19a and 18a” value in [4] (19a versus 18a) was 16.5%. The same substance displayed an R1 in data set [4] of 4.0 mM⁻¹ s⁻¹.

For the substance trypsin, the “water T2 (400 MHz NMR in D2O), construct 16 mg/ml, trypsin 0.025 mg/ml” value in data set [6] is listed as “After adding trypsin, T2 increases by 52.3%”.

Consider “dysprosium-diethylenetriaminepentaacetic (DTPA) [DTPA-dysprosium]”, for which the “ratio of diffusion coefficient to that of PEG 80 kD” value in data set [7] is 17 fold; in data set [7] (setting [10]), “roughly 17 fold”. The “diffusion coefficient Dwater” value in [8] is reported as 3.8×10^−6 cm^2/s; in [8] (setting [10]), “approximately 3.8×10^−6 cm^2/s”.

With “gadolinium-PEG-RPLALWRSC-dysprosium [Compound 46]”, in data set [9], the “MRI signal intensity on cleavage by MMP-7” value is recorded as “increase in MRI signal intensity”.
